{
  "source": "ChEMBL document CHEMBL4619786",
  "about": "“Discovery of Novel Resorcinol Dibenzyl Ethers Targeting the Programmed Cell Death-1/Programmed Cell Death-Ligand 1 Interaction as Potential Anticancer Agents” (J Med Chem, 2020)",
  "key": {"[1]": {"tested_on": "Mus musculus", "assay": "Immunostimulatory activity in mouse B16/F10 cells implanted BALB/c mouse assessed as increase in activation of tumor-microenvironment mediated activated cytotoxic T cells in tumor by measuring melanoma cell population at 25 mg/kg, ig administered once daily via gavage for 15 days measured 24 hrs post-last dose by immunostaining based flow cytometry (reference value: 72.8%)", "assay_type": "functional"}, "[2]": {"tested_on": "Mus musculus", "assay": "Effect on spleen helper T cell population in mouse B16/F10 cells implanted […] mouse assessed as spleen cell population at 50 mg/kg, ig administered once daily via gavage for 15 days measured 24 hrs post-last dose by immunostaining based flow cytometry (reference value: 56.1 %)", "assay_type": "ADME, organism-based", "conditions": "in vivo, po"}, "[3]": {"tested_on": "Mus musculus", "assay": "Effect on activated cytotoxic T cell population in mouse B16/F10 cells implanted […] mouse assessed as CD3-positive/CD8-positive cell population in spleen at 50 mg/kg, ig administered once daily via gavage for 15 days measured 24 hrs post-last dose by immunostaining based flow cytometry (reference value: 14.2 %)", "assay_type": "organism-based", "conditions": "in vivo, po"}, "[4]": {"assay": "Cmax in Sprague-Dawley rat at 10 mg/kg, po by LC-MS/MS analysis", "assay_type": "ADME, organism-based", "parameters": "dose 10 mg/kg, route oral", "conditions": "in vivo"}, "[5]": {"assay": "Toxicity in Sprague-Dawley rat at 10 mg/kg, po", "assay_type": "organism-based", "conditions": "in vivo"}, "[6]": {"tested_on": "Mus musculus", "assay": "Immunostimulatory activity in mouse B16/F10 cells implanted BALB/c mouse assessed as increase in activation of tumor-microenvironment mediated helper T cells in tumor by measuring melanoma cell population at 25 mg/kg, ig administered once daily via gavage for 15 days measured 24 hrs post-last dose by immunostaining based flow cytometry (reference value: 70%)", "assay_type": "functional"}, "[7]": {"tested_on": "Mus musculus", "assay": "Immunostimulatory activity in mouse B16/F10 cells implanted BALB/c mouse assessed as increase in activation of tumor-microenvironment mediated helper T cells in tumor by measuring CD3-positive/CD4-positive cell population at 25 mg/kg, ig administered once daily via gavage for 15 days measured 24 hrs post-last dose by immunostaining based flow cytometry (reference value: 6.15%)", "assay_type": "functional"}, "[8]": {"assay": "Toxicity in […] cells xenografted BALB/c mouse assessed as decrease in body weight at 25 mg/kg, ip administered once daily for 14 days measured daily during compound dosing", "assay_type": "organism-based", "conditions": "in vivo, 336 h"}, "[9]": {"tested_on": "Mus musculus", "assay": "Immunostimulatory activity in mouse B16/F10 cells implanted […] mouse assessed as increase in activation of tumor-microenvironment mediated activated cytotoxic T cells in tumor by measuring melanoma cell population at 100 mg/kg, ig administered once daily via gavage for 15 days measured 24 hrs post-last dose by immunostaining based flow cytometry (reference value: 72.8%)", "assay_type": "functional"}, "[10]": {"tested_on": "Mus musculus", "assay": "Effect on activated cytotoxic T cell population in mouse B16/F10 cells implanted […] mouse assessed as CD8-positive cell population in spleen at 100 mg/kg, ig administered once daily via gavage for 15 days measured 24 hrs post-last dose by immunostaining based flow cytometry (reference value: 0.383 %)", "assay_type": "organism-based", "conditions": "in vivo, po"}, "[11]": {"tested_on": "Mus musculus", "assay": "Effect on activated cytotoxic T cell population in mouse B16/F10 cells implanted […] mouse assessed as CD8-positive cell population in spleen at 25 mg/kg, ig administered once daily via gavage for 15 days measured 24 hrs post-last dose by immunostaining based flow cytometry (reference value: 0.383 %)", "assay_type": "organism-based", "conditions": "in vivo, po"}, "[12]": {"tested_on": "Mus musculus", "assay": "Effect on spleen helper T cell population in mouse B16/F10 cells implanted […] mouse assessed as spleen cell population at 25 mg/kg, ig administered once daily via gavage for 15 days measured 24 hrs post-last dose by immunostaining based flow cytometry (reference value: 56.1 %)", "assay_type": "ADME, organism-based", "conditions": "in vivo, po"}, "[13]": {"assay": "Toxicity in mouse B16/F10 cells implanted […] mouse assessed as increase in body weight at 25 to 100 mg/kg, ig administered once daily via gavage for 15 days measured during compound dosing", "assay_type": "organism-based", "conditions": "in vivo, po, 360 h"}, "[14]": {"tested_on": "Mus musculus", "assay": "Immunostimulatory activity in mouse B16/F10 cells implanted BALB/c mouse assessed as increase in activation of tumor-microenvironment mediated activated cytotoxic T cells in tumor by measuring CD3-positive/CD8-positive cell population at 25 mg/kg, ig administered once daily via gavage for 15 days measured 24 hrs post-last dose by immunostaining based flow cytometry (reference value: 4.18%)", "assay_type": "functional"}, "[15]": {"assay": "AUC (0 to t) in Sprague-Dawley rat at 10 mg/kg, po by LC-MS/MS analysis", "assay_type": "ADME, organism-based", "conditions": "in vivo"}, "[16]": {"assay": "Oral bioavailability in Sprague-Dawley rat at 10 mg/kg by LC-MS/MS analysis", "assay_type": "ADME, organism-based", "conditions": "in vivo"}, "[17]": {"tested_on": "Mus musculus", "assay": "Effect on spleen helper T cell population in mouse B16/F10 cells implanted […] mouse assessed as spleen cell population at 100 mg/kg, ig administered once daily via gavage for 15 days measured 24 hrs post-last dose by immunostaining based flow cytometry (reference value: 56.1 %)", "assay_type": "ADME, organism-based", "conditions": "in vivo, po"}, "[18]": {"tested_on": "Mus musculus", "assay": "Immunostimulatory activity in mouse B16/F10 cells implanted BALB/c mouse assessed as increase in activation of tumor-microenvironment mediated activated cytotoxic T cells in tumor by measuring CD8-positive cell population at 50 mg/kg, ig administered once daily via gavage for 15 days measured 24 hrs post-last dose by immunostaining based flow cytometry (reference value: 2.2%)", "assay_type": "functional"}, "[19]": {"tested_on": "Mus musculus", "assay": "Effect on activated cytotoxic T cell population in mouse B16/F10 cells implanted […] mouse assessed as spleen cell population at 25 mg/kg, ig administered once daily via gavage for 15 days measured 24 hrs post-last dose by immunostaining based flow cytometry (reference value: 57.9 %)", "assay_type": "organism-based", "conditions": "in vivo, po"}, "[20]": {"tested_on": "Mus musculus", "assay": "Immunostimulatory activity in mouse B16/F10 cells implanted BALB/c mouse assessed as increase in activation of tumor-microenvironment mediated activated cytotoxic T cells in tumor by measuring CD3-positive cell population at 25 mg/kg, ig administered once daily via gavage for 15 days measured 24 hrs post-last dose by immunostaining based flow cytometry (reference value: 20.8%)", "assay_type": "functional"}, "[21]": {"tested_on": "Mus musculus", "assay": "Effect on spleen helper T cell population in mouse B16/F10 cells implanted […] mouse assessed as CD4-positive cell population at 100 mg/kg, ig administered once daily via gavage for 15 days measured 24 hrs post-last dose by immunostaining based flow cytometry (reference value: 1.47 %)", "assay_type": "ADME, organism-based", "conditions": "in vivo, po"}, "[22]": {"tested_on": "Mus musculus", "assay": "Effect on activated cytotoxic T cell population in mouse B16/F10 cells implanted […] mouse assessed as CD3-positive/CD8-positive cell population in spleen at 25 mg/kg, ig administered once daily via gavage for 15 days measured 24 hrs post-last dose by immunostaining based flow cytometry (reference value: 14.2 %)", "assay_type": "organism-based", "conditions": "in vivo, po"}, "[23]": {"tested_on": "Mus musculus", "assay": "Effect on activated cytotoxic T cell population in mouse B16/F10 cells implanted […] mouse assessed as CD8-positive cell population in spleen at 50 mg/kg, ig administered once daily via gavage for 15 days measured 24 hrs post-last dose by immunostaining based flow cytometry (reference value: 0.383 %)", "assay_type": "organism-based", "conditions": "in vivo, po"}, "[24]": {"tested_on": "A549", "assay": "Cytotoxicity against human A549 cells assessed as reduction in cell viability measured after 48 hrs by MTT assay", "assay_type": "functional, cell-based", "conditions": "A549, 48 h"}, "[25]": {"assay": "Half life in Sprague-Dawley rat at 1 mg/kg, iv by LC-MS/MS analysis", "assay_type": "ADME, organism-based", "conditions": "in vivo"}, "[26]": {"assay": "Volume of distribution at steady state in Sprague-Dawley rat at 10 mg/kg, po by LC-MS/MS analysis", "assay_type": "ADME, organism-based", "conditions": "in vivo"}, "[27]": {"assay": "Toxicity in mouse B16/F10 cells implanted […] mouse assessed as change in thymus weight at 25 to 100 mg/kg, ig administered once daily via gavage for 15 days measured 24 hrs post-last dose", "assay_type": "organism-based", "conditions": "in vivo, po"}},
  "data": [
    {"smiles": "Cc1c(COc2cc(OCc3cccc(C#N)c3)c(CNC(C)(C)C(=O)O)cc2Cl)cccc1-c1ccccc1", "values": [
      {"measurement": "Activity", "setting": "[1]", "result": 59.4, "unit": "%"},
      {"measurement": "Activity", "setting": "[2]", "result": 53.9, "unit": "%"},
      {"measurement": "Activity", "setting": "[3]", "result": 15.5, "unit": "%"},
      {"measurement": "Cmax", "setting": "[4]", "result": 69.5, "unit": "ng/mL"},
      {"measurement": "Activity", "setting": "[5]", "result": "Non-Toxic"},
      {"measurement": "Activity", "setting": "[6]", "result": 65.2, "unit": "%"},
      {"measurement": "Activity", "setting": "[7]", "result": 15.4, "unit": "%"},
      {"measurement": "Activity", "setting": "[8]", "result": "Non-Toxic"},
      {"measurement": "Activity", "setting": "[9]", "result": 44.8, "unit": "%"},
      {"measurement": "Activity", "setting": "[10]", "result": 0.44, "unit": "%"},
      {"measurement": "Activity", "setting": "[11]", "result": 0.452, "unit": "%"},
      {"measurement": "Activity", "setting": "[12]", "result": 59.9, "unit": "%"},
      {"measurement": "Activity", "setting": "[13]", "result": "Toxic"},
      {"measurement": "Activity", "setting": "[14]", "result": 12.4, "unit": "%"},
      {"measurement": "AUC(0-t)", "setting": "[15]", "result": 410, "unit": "ng·h/mL"},
      {"measurement": "bioavailability", "setting": "[16]", "result": 5, "unit": "%"},
      {"measurement": "Activity", "setting": "[17]", "result": 60.4, "unit": "%"},
      {"measurement": "Activity", "setting": "[18]", "result": 5.76, "unit": "%"},
      {"measurement": "Activity", "setting": "[19]", "result": 62.7, "unit": "%"},
      {"measurement": "Activity", "setting": "[20]", "result": 18, "unit": "%"},
      {"measurement": "Activity", "setting": "[21]", "result": 1.78, "unit": "%"},
      {"measurement": "Activity", "setting": "[22]", "result": 12.5, "unit": "%"},
      {"measurement": "Activity", "setting": "[23]", "result": 0.374, "unit": "%"},
      {"measurement": "IC50", "setting": "[24]", "result": "> 10", "unit": "µM"},
      {"measurement": "half-life", "setting": "[25]", "result": 1.5, "unit": "h"},
      {"measurement": "Vdss", "setting": "[26]", "result": 290.3, "unit": "L/kg"},
      {"measurement": "Activity", "setting": "[27]", "result": "Non-Toxic"}
    ]}
  ]
}
